Consider 2 compounds from patent US6395261B1, “Walnut seed meal extract” (Gattefosse S.A., priority 1998, dated 2002).

For one assay, the system named is elastase. Description: Elastase activity of cellular extracts of fibroblasts (SANA substrate). It counts as biochemical, human. As to conditions: positive control at 2 mM. On the procedure: This activity is evaluated on cellular extracts of fibroblasts of human dermis, isolated from the foreskin and cultured according to routine techniques at 37° C., in a humid air-CO2 (95/5%) atmosphere.
The fibroblasts are cultured in DMEM medium supplemented with fetal calf serum (10% FCS) and passaged regularly until a sufficient biomass is obtained.
To carry out the test, the cells are detached from their support by trypsinization. After centrifugation and suitable treatment, the cellular extracts are recovered.
The elastase activity of the cellular extracts was evaluated using Suc-(L-Ala)3-p-nitroanilide (SANA) as substrate. Aliquots of the cellular extract are preincubated at 37° C. in TEA (triethanolamine) buffer at pH=7.8, alone or in buffer containing various concentrations of extracts.
After incubation, a solution of SANA is added to the reaction mixture.
The optical densities at 405 nm are recorded for 1 hour 30 min to 2 hours.
A positive control was introduced into the trial (dichloroisocoumarin at 2 mM).

In the next assay the test system is human skin fibroblasts. Put plainly: Incorporation of 3H-leucine into protein fractions of fibroblasts in monolayer culture. It counts as cell-based. As to conditions: vitamin C reference product.
Setting [1] is: macromolecules extracted from the culture medium.
Where [2] appears, read: macromolecules extracted from the intracellular medium.

Molecules are shown by their SMILES.

Experimental for human skin fibroblasts: After culture of the human skin fibroblasts until the cells become confluent, the culture medium is replaced by a medium containing 2% FCS (Fetal Calf Serum) with:
or vitamin C (reference product).
A batch of untreated control culture is performed in parallel.
After 24 hours of incubation at 37° C., labeled leucine (^3H-leucine) is added to the culture medium and the medium is left to incubate for an additional 48 hours. The following are recovered separately:
on the one hand, the culture medium,
on the other hand, the cell lysate after cellular lysis,
and finally the insoluble fraction (membranes, matrix deposited).
The macromolecules are extracted and then the incorporation of the radioactive precursor of these molecules is measured by liquid scintillation.

In the assay with elastase (elastase activity), `O=c1oc(Cl)c(Cl)c2ccccc12` [DCI, dichloroisocoumarin] yielded an Inhibition of 37. In addition, in the assay on elastase, the “mU elastase/10^6 cell” value is recorded as 0.431 mU elastase/10^6 cell.

Take `O=C1O[C@H]([C@@H](O)CO)C(O)=C1O` [Vitamin C, vitamin C]: the entries for the “% Control” value in the assay with human skin fibroblasts (setting [1]) and in the assay with human skin fibroblasts (setting [2]) were 132 % Control and 96 % Control, respectively. For the same compound, the Counts/minute amounted to 34748 ± 2599 Counts/minute with human skin fibroblasts (setting [1]) and 35953 ± 4349 Counts/minute in the assay with human skin fibroblasts (setting [2]).
